Test results published in patent US4943579A, “Water soluble prodrugs of camptothecin” (priority 1987, dated 1990).
Values after ≈ are worked out from the molar mass of the structure shown. Counter-ions that a name gives are not always drawn. Like-named read-outs stand apart in the source and are kept apart here.

How the values were obtained:
[1] = test system: leukemia L-1210; settings: mice; cited from earlier work
[2] = test system: Walker 256 tumor; settings: rats; cited from earlier work
[3] = cited from earlier work
[4] = test system: L-1210 lymphoid leukemia; experiment: Anti-tumor activity in CDF-1 mice implanted with L-1210 lymphoid leukemia (IP/IP, QD4 × 2); assay type: in vivo; settings: Mus musculus, read-out: T/C; for response vs control in vivo at 30 mg/kg: 30 mg/Kg per injection; for response vs control in vivo at 50 mg/kg: 50 mg/Kg per injection
Procedure: (§1) Table 1 represents the aqueous solubility and the anti-tumor activity of these compounds. The anti-tumor testing was carried out in CDF-1 mice in which were implanted L-1210 lymphoid leukemia, and the drug is delivered intraperitoneally on a schedule of QD4X2.

[5] = subsequent biological evaluation in earlier reports; cited from earlier work
[6] = Aqueous solubility; assay type: physicochemical; settings: water
Procedure: as §1

[7] = preclinical, beagle and rhesus monkey; cited from earlier work
[8] = In vitro murine plasma hydrolysis of prodrugs; assay type: in vitro ADME; settings: mouse, initial drug concentration 50 mcg/ml, read-out: t1/2 of hydrolysis in murine plasma
Description: (§2) The data are shown to reflect the relative hydrolysis rates as measured by t1/2, the time required for the concentration of the drug to become one half of the starting concentration. Freshly obtained samples of human and murine plasma were used in these studies.
(§3) ^(a) Initial drug concentration (50 mcg/ml)

[9] = In vitro human plasma hydrolysis of prodrugs; assay type: in vitro ADME; settings: initial drug concentration 50 mcg/ml, read-out: t1/2 of hydrolysis in human plasma
Description: as §2, §3

[10] = early clinical studies; cited from earlier work
[11] = animal models; Wani et al. 1980; cited from earlier work

| SMILES | half-life [8] [min] | solubility ([6]; read-out: Aqueous solubility) [µg/mL] | half-life [9] [min] | response vs control in vivo at 30 mg/kg ([4]; L1210, IP/IP, QD4 × 2) [%] | further results |
| --- | --- | --- | --- | --- | --- |
| CC[C@@]1(O)C(=O)OCc2c1cc1n(c2=O)Cc2cc3ccccc3nc2-1 [Camptothecin] |  |  |  |  | Carcinostatic activity, leukemia L-1210 [1]: inhibitor activity; Carcinostatic activity, Walker 256 tumor [2]: inhibitor activity; Solubility in aqueous vehicles ([3]; aqueous vehicles suitable for parenteral administration): practically insoluble; response vs control in vivo at 8 mg/kg ([4]; L1210, ip): 197%; Toxicity [5]: highly toxic; solubility [6]: 50 µg/mL (≈ 144 µM); Eosinophilia and bone marrow depression [7]: moderate eosinophilia and bone marrow depression; Hepatotoxicity [7]: Minimal hepatotoxicity; Major dose-limiting toxic effect [7]: Hemorrhagic enterocolitis |
| CC[C@@]1(OC(=O)CN)C(=O)OCc2c1cc1n(c2=O)Cc2cc3ccccc3nc2-1 [Formula 7, Camptothecin-20-O-glycinate.HCl] | 36 | 6000 | 15 |  | response vs control in vivo at 15 mg/kg ([4]; L1210, 15 mg/Kg per injection, IP/IP, QD4 × 2): 162% |
| CC[C@@]1(OC(=O)CNC)C(=O)OCc2c1cc1n(c2=O)Cc2cc3ccccc3nc2-1 [Formula 8] | 28 | 4000 | 13 | 191 |  |
| CCNCC(=O)O[C@]1(CC)C(=O)OCc2c1cc1n(c2=O)Cc2cc3ccccc3nc2-1 [Formula 9] | 40 | 8000 | 18 | 170 |  |
| CCN(CC)CC(=O)O[C@]1(CC)C(=O)OCc2c1cc1n(c2=O)Cc2cc3ccccc3nc2-1 [Formula 10, Camptothecin-20-O-(N,N-diethyl)glycinate.HCl] |  | 5000 | 45 | 256 |  |
| CC[C@@]1(OC(=O)C(N)CCCCCN)C(=O)OCc2c1cc1n(c2=O)Cc2cc3ccccc3nc2-1 (some centres unmarked) [Formula 12] | 48 | 15000 | 20 |  | response vs control in vivo at 50 mg/kg ([4]; L1210, IP/IP, QD4 × 2): 253% |
| CC[C@@]1(OC(=O)C(N)CCC(=O)O)C(=O)OCc2c1cc1n(c2=O)Cc2cc3ccccc3nc2-1 (some centres unmarked) [Formula 13] | 35 | 6000 | 18 |  | response vs control in vivo at 50 mg/kg ([4]; L1210, IP/IP, QD4 × 2): 154% |
| CC[C@@]1(OC(=O)CCC(=O)O)C(=O)OCc2c1cc1n(c2=O)Cc2cc3ccccc3nc2-1 [Formula 14, Camptothecin-20-O-hemisuccinate sodium salt] | 40 | 13000 | 16 |  | response vs control in vivo at 47 mg/kg ([4]; L1210, 47 mg/Kg per injection, IP/IP, QD4 × 2): 200% |
| CC[C@@]1(OP(=O)(O)O)C(=O)OCc2c1cc1n(c2=O)Cc2cc3ccccc3nc2-1 [Formula 15, Camptothecin-20-phosphate sodium salt] | 27 | 8000 | 20 |  | response vs control in vivo at 44 mg/kg ([4]; L1210, 44 mg/Kg per injection, IP/IP, QD4 × 2): 192% |
| CC[C@@](O)(C(=O)O)c1cc2n(c(=O)c1CO)Cc1cc3ccccc3nc1-2 [Sodium camptothecin] |  |  |  |  | Clinical outcome [10]: disappointing; Clinical toxicity [10]: unexpected toxicity that precluded achievement of therapeutically useful doses; Potency relative to parent camptothecin [11]: 10-20%; Solubility in water ([3]; in water): > 50000 µg/mL |
